According to the NIST ThermoML archive (doi:10.1021/je400077c):

Key:
[1] = wn = mass fraction of the nth substance listed; settings: 298.15 K, 101 kPa, Liquid; for viscosity: Capillary tube (Ostwald / Ubbelohde) method; for speed of sound: Linear variable-path acoustic interferometer; for mass density: Vibrating tube method
[2] = refractive index (Na D-line) (dimensionless); wn = mass fraction of the nth substance listed; settings: 298.15 K, 101 kPa, Liquid, Standard Abbe refractometry

[Ba+2].[Cl-].[Cl-] [barium chloride] + O
Settings | mass density, [1] [kg/m3] | refractive index, [2] | speed of sound, [1] [m/s] | viscosity, [1] [mPa·s]
w1 = 0.01 | 997.56 | 1.333 | 1516.7 | 0.909
w1 = 0.03 | 998.66 | 1.3337 | 1521.4 | 0.915
w1 = 0.05 | 999.74 | 1.3345 | 1525.3 | 0.921
